In patent US6602856B1, “Antagonists of alpha-melanocyte stimulating hormone and methods based thereon” (priority 1995, dated 2003):
Non-standard residues stand in square brackets, D forms with d. No end group written: not given here. Nle = CCCC[C@H](N)C(=O)O

Columns and labels:
[1] = molecular target: T1, endogenous amphibian MSH-receptors (Xenopus laevis, UniProt A0A1L8GF34); assay type: cell-based; settings: against 15 nM α-MSH; melanophores pretreated with 1 nM melatonin; mean±SE
T1 sequence (A0A1L8GF34 1-317): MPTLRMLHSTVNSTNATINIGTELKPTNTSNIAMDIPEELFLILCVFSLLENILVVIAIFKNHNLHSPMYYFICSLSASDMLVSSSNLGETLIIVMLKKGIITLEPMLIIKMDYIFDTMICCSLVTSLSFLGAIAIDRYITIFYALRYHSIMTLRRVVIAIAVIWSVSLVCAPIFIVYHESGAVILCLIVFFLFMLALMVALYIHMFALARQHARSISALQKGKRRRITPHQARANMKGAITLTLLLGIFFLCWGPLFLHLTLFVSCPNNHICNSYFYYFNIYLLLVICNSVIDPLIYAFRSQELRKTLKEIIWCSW
Experimental: Melanin dispersion responses were quantitated by measuring transmittance through a monolayer of cultured melanophores pretreated with 1 nM melatonin (Potenza, et. al., 1992, Anal Biochem. 206, 315-22) and curve fit with a logistic equation (De Lean et al., 1978, Am J. Physiol. 235, E97-E102).
Broken lines indicate 99% confidence level.
(§1) Each point represents the mean and SSD of four independent transmittance measurements. Ti=initial transmittance (2 min.). Tf=final transmittance (60 min.).
(§2) For dose-response studies all tripeptides were synthesized on Rink Amide MBHA resin 0.25 mmol scale using standard Fmoc chemistry. After synthesis, peptides were purified suing HPLC and reverse-phase chromatography on a C18 column. The dose-response curves were obtained by microtiter plate assays (Potenza et al, 1992, Pigment Cell Res. 5, 372-378). Melanophore cells (18,000/well) were plated on 96-well tissue culture plates (Falcon).

[2] = system: α-MSH mediated cAMP second messenger stimulation; test: α-MSH mediated intracellular cAMP stimulation in Xenopus melanophores; assay type: cell-based, Xenopus laevis; settings: peptide at 40 μM; α-MSH 10 nM
Experimental: (§3) Oxytocin antagonist GVT ([d(CH2)5, Tyr (Me)^2, Orn^8]-Vasotocin; from Peninsula), at 20 μM, is used as a control to block responses evoked by 8 Nm AVT. Intracellular CAMP measurements were taken from confluent Xenopus melanophores grown in 24-well tissue culture plates (Falcon). Each bar represents the mean and SSD of four independent measurements. *(T-test; P<0.001) for all groups except those bearing asterisks.
(§4) Melanophores were plated confluently into 24-well tissue culture (Falcon) plates two days before the assay. Immediately prior to an assay, cells were washed with 70% L-15 medium (Sigma) containing 0.05% bovine serum albumin and then treated with 1 nm melatonin in the same medium. Then, cells were washed for 5 min in 70% L-15+0.05% bovine serum albumin+0.5 mm 3-isobutyl-1-methylxanthine (Aldrich)+1 nm melatonin, followed by 30 min of treatment with the test drug in the same media. After the drug treatment, cells were washed twice with 70% phosphate-buffered saline.
(§5) Oxytocin antagonist GVT ([d(CH2)5, Tyr (Me)^2, Orn^8]-Vasotocin; from Peninsula), at 20 μM, is used as a control to block responses evoked by 8 nM AVT.

[3] = system: cAMP stimulation evoked by AVT; test: AVT evoked intracellular cAMP stimulation in Xenopus melanophores; assay type: cell-based, Xenopus laevis; settings: AVT 8 nM
Experimental: as §3, §4, §5

[4] = system: vasoactive intestinal peptide (VIP) activated pigment dispersion in Xenopus melanophores; settings: read-out: EC50 (pigment dispersion)
Experimental: as §1, §2
(§6) The 221,184 component library was organized as 96 sub-libraries with 2,304 different peptide combinations per pool, each defined by the chemical structure of the amino terminal position.

[5] = system: [Arg^8]-vasotocin (AVT) activated pigment dispersion in Xenopus melanophores; settings: read-out: EC50 (pigment dispersion)
Experimental: as §1, §2, §6

| Substance | IC50 (μM) [1] | also measured |
| --- | --- | --- |
| D-Trp-Arg-Ala-NH2 [A13] | Inactive |  |
| D-Trp-Arg-Nle-NH2 [A2] |  | block of α-MSH mediated cAMP stimulation [2]: blocks; block of cAMP stimulation evoked by AVT ([3]; peptide at 40 μM): does not block |
| D-Trp-Arg-βAla-NH2 [A14] | Inactive |  |
| D-Trp-Arg-γAbu-NH2 [A11] | Inactive |  |
| D-Trp-Arg-εAhx-NH2 [A12] | Inactive |  |
| Vasoactive Intestinal Peptide [VIP] |  | EC50 [4]: ~1 nM |
| [Arg^8]-vasotocin [AVT] |  | EC50 [5]: ~2 nM |
| [d(CH2)5, Tyr (Me)^2, Orn^8]-Vasotocin [GVT, reference compound] |  | block of responses evoked by AVT (cAMP) ([3]; antagonist at 20 μM, control): block |
| [dW]-Asp-[Nle]-NH2 [B8] | Inactive |  |
